Measurements from ChEMBL document CHEMBL5154783, “Design, synthesis, and evaluation of novel 3-thiophene derivatives as potent fungistatic and fungicidal reagents based on a conformational restriction strategy” (Eur J Med Chem, 2022).
Converted amounts (≈) assume the structure as drawn.

Experiments:
Format in all cases: functional
[1] = system: Pichia kudriavzevii; assay: Antifungal activity against Candida krusei GIM 2.1 assessed as fungal growth inhibition by CLSI based serial microbroth dilution method
[2] = system: Aspergillus fumigatus; assay: Antifungal activity against Aspergillus fumigatus CGMCC 3.7795 assessed as fungal growth inhibition by CLSI based serial microbroth dilution method
[3] = system: Candida parapsilosis; assay: Antifungal activity against Candida parapsilosis GIM 2.190 assessed as fungal growth inhibition by CLSI based serial microbroth dilution method; conditions: Lodderomyces parapsilosis
[4] = system: Candida albicans; assay: Antifungal activity against Candida albicans CPCC400616 assessed as fungal growth inhibition by CLSI based serial microbroth dilution method
[5] = system: Candida tropicalis; assay: Antifungal activity against Candida tropicalis CGMCC 2.3739 assessed as fungal growth inhibition by CLSI based serial microbroth dilution method
[6] = system: Candida albicans; assay: Antifungal activity against Candida albicans ATCC SC5314 assessed as fungal growth inhibition by CLSI based serial microbroth dilution method
[7] = system: Nakaseomyces glabratus; assay: Antifungal activity against Candida glabrata clinical isolate assessed as fungal growth inhibition by CLSI based serial microbroth dilution method
[8] = system: Cryptococcus neoformans; assay: Antifungal activity against Cryptococcus neoformans CGMCC 2.3161 assessed as fungal growth inhibition by CLSI based serial microbroth dilution method

SMILES | MIC [1] [µg/mL] | MIC [2] [µg/mL] | MIC [3] [µg/mL] | MIC [4] [µg/mL] | MIC [5] [µg/mL] | MIC [6] [µg/mL] | MIC [7] [µg/mL] | MIC [8] [µg/mL]
CCC(C)n1ncn(-c2ccc(N3CCN(c4ccc(OCC5COC(Cn6cncn6)(c6ccc(Cl)cc6Cl)O5)cc4)CC3)cc2)c1=O (stereo not given) [ITRACONAZOLE] | 0.125 (≈ 0.177 µM) | 0.125 (≈ 0.177 µM) | 0.125 (≈ 0.177 µM) | < 0.03 | < 0.03 | 0.03 (≈ 0.0425 µM) | 0.125 (≈ 0.177 µM) | 0.125 (≈ 0.177 µM)
c1ccc(CC2(Cn3ccnc3)COC(c3ccc(-c4ccoc4)cc3)=N2)cc1 (stereo not given) | > 64 | > 64 | > 64 | > 64 | > 64 | 0.5 (≈ 1.3 µM) | > 64 | 4 (≈ 10.4 µM)
Fc1cccc(CC2(Cn3ccnc3)COC(c3ccc(-c4ccsc4)cc3)=N2)c1 (stereo not given) | 1 (≈ 2.4 µM) | > 64 | > 64 | > 64 | > 64 | > 64 | > 64 | > 64
c1ccc(CC2(Cn3ccnc3)COC(c3noc4c3CCc3ccccc3-4)=N2)cc1 (stereo not given) | > 64 | > 64 | > 64 | 32 (≈ 78 µM) | 32 (≈ 78 µM) | 16 (≈ 39 µM) | 16 (≈ 39 µM) | > 64
Fc1cccc(F)c1CC1(Cn2cnnn2)COC(c2ccc(-c3ccsc3)cc2)=N1 (stereo not given) | > 64 | > 64 | > 64 | 16 (≈ 36.6 µM) | > 64 | 16 (≈ 36.6 µM) | > 64 | > 64
c1ccc(CC2(Cn3ccnc3)COC(c3cc4ccccc4o3)=N2)cc1 (stereo not given) | > 64 | > 64 | > 64 | > 64 | 8 (≈ 22.4 µM) | > 64 | > 64 | > 64
FC(F)(F)Oc1ccc(CC2(Cn3ccnc3)COC(c3ccc(-c4ccsc4)cc3)=N2)cc1 (stereo not given) | > 64 | > 64 | > 64 | > 64 | > 64 | > 64 | > 64 | > 64
Clc1ccccc1CC1(Cn2ccnc2)COC(c2ccc(-c3ccsc3)cc2)=N1 (stereo not given) | > 64 | 16 (≈ 36.9 µM) | 1 (≈ 2.3 µM) | 8 (≈ 18.4 µM) | 0.5 (≈ 1.15 µM) | 0.125 (≈ 0.288 µM) | 16 (≈ 36.9 µM) | > 64
Cc1ccc(CC2(Cn3ccnc3)COC(c3ccc(-c4ccsc4)cc3)=N2)cc1 (stereo not given) | > 64 | > 64 | > 64 | > 64 | > 64 | > 64 | > 64 | > 64
Cc1cccc(CC2(Cn3ccnc3)COC(c3ccc(-c4ccsc4)cc3)=N2)c1 (stereo not given) | > 64 | > 64 | > 64 | > 64 | > 64 | > 64 | > 64 | > 64
FC(F)(F)c1ccccc1CC1(Cn2ccnc2)COC(c2ccc(-c3ccsc3)cc2)=N1 (stereo not given) | > 64 | 32 (≈ 68.4 µM) | > 64 | 8 (≈ 17.1 µM) | 16 (≈ 34.2 µM) | 0.125 (≈ 0.267 µM) | 16 (≈ 34.2 µM) | > 64
Fc1cccc(F)c1CC1(Cn2ccnn2)COC(c2ccc(-c3ccsc3)cc2)=N1 (stereo not given) | > 64 | > 64 | > 64 | 16 (≈ 36.7 µM) | > 64 | 16 (≈ 36.7 µM) | > 64 | > 64
Clc1cccc(CC2(Cn3ccnc3)COC(c3ccc(-c4ccsc4)cc3)=N2)c1 (stereo not given) | > 64 | > 64 | > 64 | > 64 | > 64 | > 64 | > 64 | > 64
c1ccc(CC2(Cn3ccnc3)COC(c3ccc4c(c3)OCO4)=N2)cc1 (stereo not given) | > 64 | > 64 | > 64 | > 64 | > 64 | > 64 | > 64 | > 64
FC(F)(F)c1ccc(CC2(Cn3ccnc3)COC(c3ccc(-c4ccsc4)cc3)=N2)cc1 (stereo not given) | > 64 | > 64 | > 64 | > 64 | > 64 | > 64 | > 64 | > 64
c1ccc(CC2(Cn3ccnc3)COC(c3ccc4ccccc4c3)=N2)cc1 (stereo not given) | > 64 | > 64 | > 64 | > 64 | > 64 | > 64 | > 64 | 4 (≈ 10.9 µM)
c1ccc(COc2ccc(C3=NC(Cc4ccccc4)(Cn4ccnc4)CO3)cc2)cc1 (stereo not given) | > 64 | > 64 | > 64 | > 64 | > 64 | > 64 | > 64 | > 64
Fc1cc(F)cc(CC2(Cn3ccnc3)COC(c3ccc(-c4ccsc4)cc3)=N2)c1 (stereo not given) | > 64 | > 64 | > 64 | > 64 | > 64 | > 64 | > 64 | > 64
c1ccc(CC2(Cn3ccnc3)COC(c3ccc(-c4cncnc4)cc3)=N2)cc1 (stereo not given) | > 64 | > 64 | > 64 | > 64 | > 64 | > 64 | > 64 | > 64
CC(C)(C)c1ccc(CC2(Cn3ccnc3)COC(c3ccc(-c4ccsc4)cc3)=N2)cc1 (stereo not given) | > 64 | > 64 | > 64 | > 64 | > 64 | > 64 | > 64 | > 64
FC(F)(F)c1cccc(CC2(Cn3ccnc3)COC(c3ccc(-c4ccsc4)cc3)=N2)c1 (stereo not given) | > 64 | > 64 | > 64 | > 64 | > 64 | > 64 | > 64 | > 64
Fc1ccc(CC2(Cn3ccnc3)COC(c3ccc(-c4ccsc4)cc3)=N2)cc1F (stereo not given) | > 64 | > 64 | > 64 | > 64 | > 64 | > 64 | > 64 | > 64
Clc1ccc(CC2(Cn3ccnc3)COC(c3ccc(-c4ccsc4)cc3)=N2)c(Cl)c1 (stereo not given) | > 64 | > 64 | > 64 | > 64 | > 64 | > 64 | > 64 | > 64
CC(C)c1ccc(CC2(Cn3ccnc3)COC(c3ccc(-c4ccsc4)cc3)=N2)cc1 (stereo not given) | > 64 | > 64 | > 64 | > 64 | > 64 | > 64 | > 64 | > 64
c1ccc(CC2(Cn3ccnc3)COC(c3cc(-c4ccccc4)on3)=N2)cc1 (stereo not given) | > 64 | 2 (≈ 5.2 µM) | > 64 | > 64 | > 64 | > 64 | > 64 | 4 (≈ 10.4 µM)
